Results on 24 molecules are retold here after US20180057505A1, “BICYCLIC HETEROARYL COMPOUNDS USEFUL AS INHIBITORS OF THE PAR-2 SIGNALING PATHWAY” (VERTEX PHARMACEUTICALS INCORPORATED, priority 2015, published 2018).

As a reminder, the IC50 is the midpoint of a concentration-inhibition curve.

Common to all, as to assay type: cell-based
In experiment [1] the target is T1, PAR2 (HT-29 cells) (Homo sapiens, UniProt P55085).
T1 construct: host or cells: HT-29
T1 sequence (P55085 26-397): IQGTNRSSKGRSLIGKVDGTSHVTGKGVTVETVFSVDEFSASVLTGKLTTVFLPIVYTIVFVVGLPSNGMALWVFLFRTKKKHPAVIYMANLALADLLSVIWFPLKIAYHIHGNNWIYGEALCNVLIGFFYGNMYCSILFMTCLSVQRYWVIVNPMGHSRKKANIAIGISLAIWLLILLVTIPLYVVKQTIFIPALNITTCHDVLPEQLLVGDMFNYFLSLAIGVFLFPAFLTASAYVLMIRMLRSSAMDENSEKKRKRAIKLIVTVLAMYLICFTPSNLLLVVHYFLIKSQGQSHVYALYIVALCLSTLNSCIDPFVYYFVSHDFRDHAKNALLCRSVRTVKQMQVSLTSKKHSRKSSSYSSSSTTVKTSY
Briefly: Ca FLIPR TETRA assay, ANTAGONIST mode, activator 8 μM SLIGKV. The settings on record: HT-29 cells, activator 8 μM SLIGKV; maximal antagonist concentration per Method (A: 0.1, 1 or 2 μM; B: 50 μM). Put shortly: (§1)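 HT-29 cells in 1% FBS/McCoy's overnight, loaded with FLIPR Calcium 5 dye (45 min 37 °C, 15 min r.t.); compounds added and read for intrinsic Ca2+ activation, then after 30 min r.t. stimulated with fixed activator: 8 μM SLIGKV, 0.6 μM UTP, 1 U/mL thrombin or 3.1 U/mL trypsin (final).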

Experiment [2] deals with UTP-stimulated Ca2+ response in HT-29 cells. In words: Ca FLIPR TETRA assay, ANTAGONIST mode, activator 0.6 μM UTP. Particulars: HT-29 cells, activator 0.6 μM UTP. Put shortly: as §1
The subject of experiment [3] is Thrombin-stimulated Ca2+ response in HT-29 cells. In words: Ca FLIPR TETRA assay, ANTAGONIST mode, activator 1 U/mL Thrombin. The settings on record: HT-29 cells, activator 1 U/mL Thrombin. A digest of the protocol:
as §1

Experiment [4] addresses T1, PAR2 (HT-29 cells). Briefly: Ca FLIPR TETRA assay, ANTAGONIST mode, activator 3.1 U/mL trypsin. The settings on record: HT-29 cells, activator 3.1 U/mL trypsin; maximal antagonist concentration per Method (A: 0.1, 1 or 2 μM; B: 50 μM). Put shortly: as §1

Regarding `Cc1n[nH]cc1N1CCN(C(=O)c2cc3nc(-c4ccc(F)cc4)cc(C(C)(C)C)c3o2)C(C)(C)C1=O` [Example I-250], the IC50 at PAR2 (HT-29 cells) [1] is 15 nM; in experiment [2] (Homo sapiens), > 2000 nM; in experiment [3] (Homo sapiens) it was > 2000 nM; on PAR2 (HT-29 cells) [4], 51 nM.
Consider `CC1(C)CCC(c2cc(-c3ccc(F)cc3)nc3cc(C(=O)N4CCNC(=O)C4(C)C)oc23)CC1` [Example I-251], for which the IC50 (on PAR2 (HT-29 cells) [1]; in experiment [2]; in experiment [3]; at PAR2 (HT-29 cells) [4]) was > 2000 nM each time.
Turning to `CC(C)(C)c1cc(-c2ccc(Cl)c(F)c2)nc2cc(C(=O)N3CCN(C(=O)c4ccc(C(=O)O)nc4)CC3(C)C)oc12` [Example I-252], the IC50 at PAR2 (HT-29 cells) [1] is 120 nM; in experiment [2] (Homo sapiens) it was > 2000 nM; in experiment [3] (Homo sapiens) it was > 2000 nM; at PAR2 (HT-29 cells) [4] it was 140 nM.
As to `CC(C)(C)c1cc(-c2ccc(Cl)c(F)c2)nc2cc(C(=O)N3CCN(c4cccc(C(=O)O[C@@H]5OC(C(=O)O)[C@@H](O)C(O)[C@@H]5O)n4)CC3(C)C)oc12` (stereo partly drawn) [Example I-253, (3S,5S,6S)-6-[6-[4-[7-tert-butyl-5-(4-chloro-3-fluoro-phenyl)furo[3,2-b]pyridine-2-carbonyl]-3,3-dimethyl-piperazin-1-yl]pyridine-2-carbonyl]oxy-3,4,5-trihydroxy-tetrahydropyran-2-carboxylic acid], the IC50 is 3.5 nM at PAR2 (HT-29 cells) [1], > 2000 nM in experiment [2] (Homo sapiens), > 2000 nM in experiment [3] (Homo sapiens) and 9.5 nM on PAR2 (HT-29 cells) [4].
On to `CC1(C)CCC(c2cc(C(C)(C)C)c3oc(C(=O)N4CCN(C(=O)C5CCC(C(=O)O)O5)CC4(C)C)cc3n2)CC1` (stereo not drawn) [Example I-254], for which the IC50 at PAR2 (HT-29 cells) [1] was 8.5 nM; in experiment [2] (Homo sapiens), > 2000 nM; in experiment [3] (Homo sapiens) it was > 2000 nM; on PAR2 (HT-29 cells) [4], 20 nM.
`CC(C)(C)c1cc(-c2ccc(Cl)c(F)c2)nc2cc(C(=O)N3CCN(C(=O)C4CCC(C(=O)O)O4)CC3(C)C)oc12` (stereo not drawn) [Example I-255]: the IC50 is 11 nM on PAR2 (HT-29 cells) [1], > 2000 nM in experiment [2] (Homo sapiens), > 2000 nM in experiment [3] (Homo sapiens) and 13 nM on PAR2 (HT-29 cells) [4].
Regarding `CC(C)(C)c1cc(-c2ccc(Cl)cc2)nc2cc(C(=O)N3CCN(C(=O)C4CCC(C(=O)O)O4)CC3(C)C)oc12` (stereo not drawn) [Example I-256], the IC50 was 22 nM on PAR2 (HT-29 cells) [1], > 2000 nM in experiment [2] (Homo sapiens), > 2000 nM in experiment [3] (Homo sapiens) and 31 nM at PAR2 (HT-29 cells) [4].
As for `CC(C)(C)c1cc(-c2ccc(Cl)c(F)c2)nc2cc(C(=O)N3CCN(C(=O)c4cccnc4)CC3(C)C)oc12` [Example I-257], the IC50 at PAR2 (HT-29 cells) [1] was 210 nM; in experiment [2], > 2000 nM; in experiment [3] it was > 2000 nM; at PAR2 (HT-29 cells) [4], 180 nM.
As for `CC1(C)CCC(c2cc(C(C)(C)C)c3oc(C(=O)N4CCN(c5cn[nH]c5)CC4(C)C)cc3n2)CC1` [Example I-258], the IC50 at PAR2 (HT-29 cells) [1] was 23 nM; in experiment [2] (Homo sapiens) it was > 2000 nM; in experiment [3] (Homo sapiens), > 2000 nM; at PAR2 (HT-29 cells) [4], 17 nM.
In the case of `CC(C)(C)c1cc(-c2ccc(Cl)c(F)c2)nc2cc(C(=O)N3CCN(c4cn[nH]c4)CC3(C)C)oc12` [Example I-259], the IC50 on PAR2 (HT-29 cells) [1] is 8 nM; in experiment [2] (Homo sapiens), > 2000 nM; in experiment [3] (Homo sapiens) it was > 2000 nM; on PAR2 (HT-29 cells) [4] it was 7.9 nM.
With `CC(C)(C)c1cc(-c2ccc(Cl)c(F)c2)nc2cc(C(=O)N3CCN(c4cn[nH]c4)C(=O)C3(C)C)oc12` [Example I-260], the IC50 is 3.3 nM on PAR2 (HT-29 cells) [1], > 2000 nM in experiment [2] (Homo sapiens), > 2000 nM in experiment [3] (Homo sapiens) and 4.4 nM at PAR2 (HT-29 cells) [4].
In the case of `CC(C)(C)c1cc(-c2ccc(Cl)c(F)c2)nc2cc(C(=O)N3CCN(c4ccnc(C(=O)O)c4)CC3(C)C)oc12` [Example I-261], the IC50 at PAR2 (HT-29 cells) [1] was 45 nM; in experiment [2] (Homo sapiens), > 2000 nM; in experiment [3] (Homo sapiens), > 2000 nM; on PAR2 (HT-29 cells) [4], 31 nM.
As for `CC(C)(C)c1cc(-c2ccc(Cl)cc2)nc2cc(C(=O)N3CCN(c4ccncc4)CC3(C)C)oc12` [Example I-262], the IC50 is 770 nM on PAR2 (HT-29 cells) [1], > 2000 nM in experiment [2] (Homo sapiens), > 2000 nM in experiment [3] (Homo sapiens) and 1900 nM at PAR2 (HT-29 cells) [4].
Take `Cc1ccc(N2CCN(C(=O)c3cc4nc(-c5ccc(Cl)cc5)cc(C(C)(C)C)c4o3)C(C)(C)C2)nn1` [Example I-263]: the IC50 on PAR2 (HT-29 cells) [1] is 2.6 nM; in experiment [2] (Homo sapiens) it was > 2000 nM; in experiment [3] (Homo sapiens), > 2000 nM; on PAR2 (HT-29 cells) [4], 3.9 nM.
Consider `Cc1cnc(N2CCN(C(=O)c3cc4nc(-c5ccc(Cl)cc5)cc(C(C)(C)C)c4o3)C(C)(C)C2)cn1` [Example I-264], for which the IC50 is 15 nM on PAR2 (HT-29 cells) [1], > 2000 nM in experiment [2] (Homo sapiens), > 2000 nM in experiment [3] (Homo sapiens) and 18 nM at PAR2 (HT-29 cells) [4].
With `Cc1cncnc1N1CCN(C(=O)c2cc3nc(-c4ccc(Cl)cc4)cc(C(C)(C)C)c3o2)C(C)(C)C1` [Example I-265], the IC50 on PAR2 (HT-29 cells) [1] was 5.8 nM; in experiment [2] (Homo sapiens) it was > 2000 nM; in experiment [3] (Homo sapiens), > 2000 nM; on PAR2 (HT-29 cells) [4], 5.5 nM.
Regarding `Cc1nccnc1N1CCN(C(=O)c2cc3nc(-c4ccc(Cl)cc4)cc(C(C)(C)C)c3o2)C(C)(C)C1` [Example I-266], the IC50 at PAR2 (HT-29 cells) [1] was 36 nM; in experiment [2] (Homo sapiens), > 2000 nM; in experiment [3] (Homo sapiens), > 2000 nM; on PAR2 (HT-29 cells) [4] it was 33 nM.
As to `CC(C)(C)c1cc(-c2ccc(Cl)c(F)c2)nc2cc(C(=O)N3CCN(c4cccnc4)CC3(C)C)oc12` [Example I-267, [7-tert-butyl-5-(4-chloro-3-fluoro-phenyl)furo[3,2-b]pyridin-2-yl]-[2,2-dimethyl-4-(3-pyridyl)piperazin-1-yl]methanone], the IC50 on PAR2 (HT-29 cells) [1] was 33 nM; in experiment [2] (Homo sapiens) it was > 2000 nM; in experiment [3] (Homo sapiens), > 2000 nM; at PAR2 (HT-29 cells) [4], 25 nM.
As to `COC(=O)c1cccc(N2CCN(C(=O)c3cc4nc(-c5ccc(Cl)c(F)c5)cc(C(C)(C)C)c4o3)C(C)(C)C2)n1` [Example I-268], the IC50 is 4.9 nM at PAR2 (HT-29 cells) [1], > 2000 nM in experiment [2] (Homo sapiens), > 2000 nM in experiment [3] (Homo sapiens) and 9.4 nM on PAR2 (HT-29 cells) [4].
For `CC(C)(C)c1cc(-c2ccc(Cl)cc2)nc2cc(C(=O)N3CCN(c4cccnc4)CC3(C)C)oc12` [Example I-269], the IC50 on PAR2 (HT-29 cells) [1] was 57 nM; in experiment [2] (Homo sapiens), > 2000 nM; in experiment [3] (Homo sapiens), > 2000 nM; at PAR2 (HT-29 cells) [4] it was 41 nM.
`CC1(C)CCC(c2cc(C(C)(C)C)c3oc(C(=O)N4CCN(c5ccccn5)CC4(C)C)cc3n2)CC1` [Example I-270]: the IC50 is 21 nM on PAR2 (HT-29 cells) [1], > 2000 nM in experiment [2] (Homo sapiens), > 2000 nM in experiment [3] (Homo sapiens) and 51 nM at PAR2 (HT-29 cells) [4].
`CC(C)(C)c1cc(-c2ccc(Cl)c(F)c2)nc2cc(C(=O)N3CCN(c4ccccn4)CC3(C)C)oc12` [Example I-271]: the IC50 on PAR2 (HT-29 cells) [1] is 7.4 nM; in experiment [2] (Homo sapiens), > 2000 nM; in experiment [3] (Homo sapiens), > 2000 nM; on PAR2 (HT-29 cells) [4], 7.8 nM.
Turning to `CC(C)(C)c1cc(-c2ccc(Cl)cc2)nc2cc(C(=O)N3CCN(c4ccccn4)CC3(C)C)oc12` [Example I-272], the concentration for half-maximal inhibition (IC50) on PAR2 (HT-29 cells) [1] is 21 nM; in experiment [2] (Homo sapiens) it was > 2000 nM; in experiment [3] (Homo sapiens), > 2000 nM; on PAR2 (HT-29 cells) [4], 14 nM.
Turning to `CC(C)(C)c1cc(-c2ccc(Cl)cc2)nc2cc(C(=O)N3CCN(c4cn[nH]c4)CC3(C)C)oc12` [Example I-273], the IC50 at PAR2 (HT-29 cells) [1] was 26 nM; in experiment [2] (Homo sapiens), > 2000 nM; in experiment [3] (Homo sapiens), > 2000 nM; at PAR2 (HT-29 cells) [4], 14 nM.
